Source: patent publication US9150546B2, “Triazine derivative and pharmaceutical composition comprising the same” (SHIONOGI & CO., LTD., priority 2009, dated 2015)

Target: human P2X3 receptor (Homo sapiens (Human), UniProt P56373)
Experiment: P2X3 receptor inhibition, ATP-evoked Fluo-3 fluorescence (FDSS 3000)
Type: cell-based
Conditions: C6BU-1 cell transfected with human P2X3 receptor gene

human P2X3 receptor, sequence (P56373 whole entry): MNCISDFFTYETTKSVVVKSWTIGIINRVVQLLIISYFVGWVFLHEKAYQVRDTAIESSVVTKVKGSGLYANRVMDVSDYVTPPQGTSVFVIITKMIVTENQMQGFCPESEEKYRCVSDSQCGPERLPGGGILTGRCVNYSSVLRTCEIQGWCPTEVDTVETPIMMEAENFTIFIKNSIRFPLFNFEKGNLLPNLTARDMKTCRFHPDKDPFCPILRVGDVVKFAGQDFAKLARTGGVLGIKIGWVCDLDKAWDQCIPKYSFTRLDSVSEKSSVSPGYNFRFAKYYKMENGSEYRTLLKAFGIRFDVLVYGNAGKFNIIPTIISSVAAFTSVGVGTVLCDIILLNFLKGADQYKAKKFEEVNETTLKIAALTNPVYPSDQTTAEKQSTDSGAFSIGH

| Structure (SMILES) | IC50 [nM] |
| --- | --- |
| Cc1ccc(Cn2c(Nc3cccc(C(F)(F)F)c3)nc(=O)n(C(C)C)c2=O)cc1 [I-021] | 197 |
| CCCCn1c(=O)nc(Nc2cccc(C(F)(F)F)c2)n(Cc2ccc(C)cc2)c1=O [I-029] | 595 |
| Cc1ccc(Cn2c(Nc3cccc(C(F)(F)F)c3)nc(=O)n(C(C)(C)C)c2=O)cc1 [I-097] | 505 |
| Cc1ccc(Cn2c(Nc3ccc(Oc4ccccc4)cc3)nc(=O)n(C(C)C)c2=O)cc1 [I-116] | 484 |
| Cc1ccc(Cn2c(Nc3cccc(Cl)c3)nc(=O)n(C(C)C)c2=O)cc1 [I-117] | 387 |
| CSc1cccc(Nc2nc(=O)n(C(C)C)c(=O)n2Cc2ccc(C)cc2)c1 [I-118] | 231 |
| Cc1ccc(Cn2c(Nc3ccc4[nH]ccc4c3)nc(=O)n(C(C)C)c2=O)cc1 [I-123] | 815 |
| CC(C)n1c(=O)nc(Nc2cccc(C(F)(F)F)c2)n(Cc2ccc(F)cc2)c1=O [I-126] | 689 |
| CC(C)n1c(=O)nc(Nc2ccc(Oc3ccccc3)cc2)n(Cc2ccc(F)cc2)c1=O [I-128] | 840 |
| CSc1cccc(Nc2nc(=O)n(C(C)C)c(=O)n2Cc2ccc(F)cc2)c1 [I-130] | 953 |
| CC(C)Oc1ccc(Nc2nc(=O)n(C(C)C)c(=O)n2Cc2ccc(F)cc2)cc1 [I-133] | 339 |
| CCn1c(=O)nc(Nc2cccc(C(F)(F)F)c2)n(Cc2ccc(F)cc2)c1=O [I-138] | 619 |
| CCn1c(=O)nc(Nc2ccc(Oc3ccccc3)cc2)n(Cc2ccc(F)cc2)c1=O [I-141] | 685 |
| CC(C)n1c(=O)nc(Nc2cccc(C(F)(F)F)c2)n(Cc2ccc(Cl)cn2)c1=O [I-162] | 379 |
| CC(C)n1c(=O)nc(Nc2ccc(Oc3ccccc3)cc2)n(Cc2ccc(Cl)cn2)c1=O [I-164] | 860 |
| CC(C)n1c(=O)nc(Nc2cccc(OC(F)(F)F)c2)n(Cc2ccc(F)cc2)c1=O [I-181] | 985 |
| CC(C)n1c(=O)nc(Nc2cccc(F)c2)n(Cc2ccc(F)cc2)c1=O [I-182] | 714 |
| CC(C)Oc1ccc(Nc2nc(=O)n(C(C)C)c(=O)n2Cc2ccc(F)cc2)cc1Cl [I-203] | 110 |
| CC(C)Oc1ccc(Nc2nc(=O)n(C(C)C)c(=O)n2Cc2ccc(F)cc2)cc1C(F)(F)F [I-204] | 558 |
| Cc1ccc(Cn2c(Nc3ccc(OC(C)C)cc3)nc(=O)n(C(C)C)c2=O)cc1F [I-217] | 268 |
| Cc1ccc(Cn2c(Nc3ccc(OC(C)C)cc3)nc(=O)n(C(C)C)c2=O)cc1[N+](=O)[O-] [I-218] | 505 |
| COC(=O)c1ccc(Nc2nc(=O)n(C(C)C)c(=O)n2Cc2ccc(F)cc2)cc1 [I-221] | 276 |

| Structure (SMILES) | IC50 [nM] |
| --- | --- |
| CC(Nc1nc(=O)n(C(C)C)c(=O)n1Cc1ccc(F)cc1)c1ccc(Cl)cc1 (centres unmarked) [I-223] | 909 |
| CC(C)Oc1ccc(Nc2nc(=O)n(C(C)C)c(=O)n2Cc2ccc(F)cc2)cc1C#N [I-227] | 970 |
| CC(C)Oc1ccc(Nc2nc(=O)n(C(C)C)c(=O)n2Cc2ccc(Cl)nc2)cc1Cl [I-235] | 985 |
| COCCOc1ccc(Nc2nc(=O)n(C(C)C)c(=O)n2Cc2ccc(Cl)cc2)cc1Cl [I-237] | 230 |
| COC(=O)c1ccc(Nc2nc(=O)n(C(C)C)c(=O)n2Cc2ccc(F)cc2)cc1Cl [I-238] | 658 |
| CC(C)n1c(=O)nc(Nc2ccc(OC3CCOCC3)c(Cl)c2)n(Cc2ccc(Cl)cc2)c1=O [I-239] | 116 |
| CCOC(=O)COc1ccc(Nc2nc(=O)n(C(C)C)c(=O)n2Cc2ccc(Cl)cc2)cc1Cl [I-241] | 447 |
| CC(C)Oc1ccc(Nc2nc(=O)n(C(C)C)c(=O)n2Cc2ccc(Cl)cc2)cc1C#N [I-245] | 168 |
| CC(C)n1c(=O)nc(Nc2ccc3[nH]c(=O)oc3c2)n(Cc2ccc(Cl)cc2)c1=O [I-246] | 996 |
| CC(C)CNC(=O)c1ccc(Nc2nc(=O)n(C(C)C)c(=O)n2Cc2ccc(Cl)cc2)cc1 [I-256] | 867 |
| CC(C)n1c(=O)nc(Nc2ccc(C(=O)NC3CC3)cc2)n(Cc2ccc(Cl)cc2)c1=O [I-257] | 682 |
| CC(C)n1c(=O)nc(Nc2ccc(C(=O)NCC3CC3)cc2)n(Cc2ccc(Cl)cc2)c1=O [I-258] | 683 |
| CC(C)n1c(=O)nc(Nc2ccc(C(=O)Nc3ccccc3)cc2)n(Cc2ccc(Cl)cc2)c1=O [I-266] | 861 |
| COc1cc(Cl)ccc1Cn1c(Nc2ccc(OC(C)C)c(F)c2)nc(=O)n(C(C)C)c1=O [I-270] | 271 |
| CC(C)Oc1ccc(Nc2nc(=O)n(CC3CC3)c(=O)n2Cc2ccc(Cl)cc2)cc1F [I-271] | 32 |
| CC(C)Oc1ccc(Nc2nc(=O)n(CCN(C)C)c(=O)n2Cc2ccc(Cl)cc2)cc1F [I-272] | 180 |
| CC(C)Oc1ccc(Nc2nc(=O)n(CC(C)(CO)CO)c(=O)n2Cc2ccc(Cl)cc2)cc1F [I-274] | 9 |
| CC(C)Oc1ccc(Nc2nc(=O)n(CC3CCOCC3)c(=O)n2Cc2ccc(Cl)cc2)cc1F [I-275] | 21 |
| CC(C)Oc1ccc(Nc2nc(=O)n(CC(CO)CO)c(=O)n2Cc2ccc(Cl)cc2)cc1F [I-276] | 12 |
| O=c1nc(Nc2ccc(-c3ccon3)cc2)n(Cc2ccc(Cl)cc2)c(=O)n1CCO [I-278] | 931 |
| COCCn1c(=O)nc(Nc2ccc(OC(C)C)c(F)c2)n(Cc2ccc(Cl)cc2)c1=O [I-280] | 30 |
| CC(C)Oc1ccc(Nc2nc(=O)n(CCN3CCOCC3)c(=O)n2Cc2ccc(Cl)cc2)cc1F [I-281] | 12 |

| Structure (SMILES) | IC50 [nM] |
| --- | --- |
| CC(C)Oc1ccc(Nc2nc(=O)n(CCN3CCCCC3)c(=O)n2Cc2ccc(Cl)cc2)cc1F [I-282] | 27 |
| CC(C)Oc1ccc(Nc2nc(=O)n(CC(F)(F)C(=O)O)c(=O)n2Cc2ccc(Cl)cc2)cc1F [I-283] | 19 |
| CC(C)Oc1ccc(Nc2nc(=O)n(C(CO)CO)c(=O)n2Cc2ccc(Cl)cc2)cc1F [I-286] | 277 |
| O=c1nc(Nc2ccc(-c3ccon3)cc2)n(Cc2ccc(Cl)cc2)c(=O)n1CCN1CCOCC1 [I-287] | 222 |
| CC(C)Oc1ccc(Nc2nc(=O)n(CCN)c(=O)n2Cc2ccc(Cl)cc2)cc1F [I-290] | 266 |
| CC(C)Oc1ccc(Nc2nc(=O)n(CC(=O)N(C)C)c(=O)n2Cc2ccc(Cl)cc2)cc1F [I-293] | 351 |
| CNC(=O)Cn1c(=O)nc(Nc2ccc(OC(C)C)c(F)c2)n(Cc2ccc(Cl)cc2)c1=O [I-294] | 40 |
| CC(C)Oc1ccc(Nc2nc(=O)n(CC(N)=O)c(=O)n2Cc2ccc(Cl)cc2)cc1F [I-295] | 46 |
| CC(C)Oc1ccc(Nc2nc(=O)n(CCC(=O)N(C)C)c(=O)n2Cc2ccc(Cl)cc2)cc1F [I-297] | 45 |
| CC(C)Oc1ccc(Nc2nc(=O)n(Cc3ccccn3)c(=O)n2Cc2ccc(Cl)cc2)cc1F [I-300] | 25 |
| COc1ccc(Nc2nc(=O)n(CCO)c(=O)n2Cc2ccc(Cl)cc2)cc1F [I-305] | 946 |
| CCOc1ccc(Nc2nc(=O)n(CCO)c(=O)n2Cc2ccc(Cl)cc2)cc1 [I-307] | 250 |
| O=c1nc(Nc2cccc(OC(F)(F)F)c2)n(Cc2ccc(Cl)cc2)c(=O)n1CCO [I-309] | 357 |
| CC(C)Oc1ccc(Nc2nc(=O)n(C(F)F)c(=O)n2Cc2ccc(Cl)cc2)cc1F [I-310] | 389 |
| O=c1nc(Nc2ccc(N3CCCCC3)cc2)n(Cc2ccc(Cl)cc2)c(=O)n1CCO [I-311] | 142 |
| CCOc1ccc(Nc2nc(=O)n(CCO)c(=O)n2Cc2ccc(Cl)cc2)cc1F [I-312] | 104 |
| O=c1nc(Nc2cccc(C(F)(F)F)c2)n(Cc2ccc(Cl)cc2)c(=O)n1CCO [I-313] | 178 |
| O=c1nc(Nc2cccc(-c3ccon3)c2)n(Cc2ccc(Cl)cc2)c(=O)n1CCO [I-314] | 555 |
| O=c1nc(Nc2ccc(C(F)(F)F)c(F)c2)n(Cc2ccc(Cl)cc2)c(=O)n1CCO [I-315] | 183 |
| O=c1nc(Nc2ccc(F)c(F)c2)n(Cc2ccc(Cl)cc2)c(=O)n1CCO [I-316] | 712 |
| CC(C)Oc1ccc(Nc2nc(=O)n(CCCN)c(=O)n2Cc2ccc(Cl)cc2)cc1F [I-317] | 137 |
| CCCOc1ccc(Nc2nc(=O)n(CCO)c(=O)n2Cc2ccc(Cl)cc2)cc1F [I-321] | 33 |

| Structure (SMILES) | IC50 [nM] |
| --- | --- |
| O=c1nc(Nc2ccc(OC3CCCC3)cc2)n(Cc2ccc(Cl)cc2)c(=O)n1CCO [I-322] | 112 |
| CC(C)COc1ccc(Nc2nc(=O)n(CCO)c(=O)n2Cc2ccc(Cl)cc2)cc1F [I-323] | 148 |
| O=c1nc(Nc2ccc(OC3CCOCC3)cc2)n(Cc2ccc(Cl)cc2)c(=O)n1CCO [I-324] | 309 |
| CC(C)Oc1ccc(Nc2nc(=O)n(CCO)c(=O)[nH]2)cc1F [I-325] | 665 |
| CC(C)Cc1ccc(Nc2nc(=O)n(CCO)c(=O)n2Cc2ccc(Cl)cc2)cc1 [I-328] | 124 |
| O=c1nc(Nc2ccc(OC(F)F)cc2)n(Cc2ccc(Cl)cc2)c(=O)n1CCO [I-329] | 266 |
| N#CCOc1ccc(Nc2nc(=O)n(CCO)c(=O)n2Cc2ccc(Cl)cc2)cc1 [I-330] | 594 |
| CC(C)Oc1ccc(Nc2nc(=O)n(CC(C)(C)CN)c(=O)n2Cc2ccc(Cl)cc2)cc1F [I-331] | 66 |
| CC(C)Oc1ccc(Nc2nc(=O)n(CC(C)(C)CO)c(=O)n2Cc2ccc(Cl)cc2)cc1F [I-332] | 8 |
| CC(C)Oc1ccc(Nc2nc(=O)n(CCO)c(=O)n2Cc2ccc(F)cc2)cc1F [I-333] | 192 |
| O=c1nc(Nc2ccc(Oc3ccccc3)cc2)n(Cc2ccc(Cl)cc2)c(=O)n1CCO [I-334] | 99 |
| CC(C)Oc1ccc(Nc2nc(=O)n(CC3(CO)CC3)c(=O)n2Cc2ccc(Cl)cc2)cc1F [I-335] | 7 |
| COC(=O)Cn1c(=O)nc(Nc2ccc(OC(C)C)c(F)c2)n(Cc2ccc(Cl)cc2)c1=O [I-338] | 53 |
| CC(C)Oc1ccc(Nc2nc(=O)n(CCO)c(=O)n2Cc2ccc(F)c(F)c2)cc1F [I-339] | 775 |
| CC(C)Oc1ccc(Nc2nc(=O)n(CCO)c(=O)n2Cc2ccc(F)cc2F)cc1F [I-340] | 336 |
| COc1ccc(Cn2c(=O)nc(Nc3ccc(OC(C)C)c(F)c3)n(Cc3ccc(Cl)cc3)c2=O)cc1 [I-343] | 21 |
| CCCCc1ccc(Nc2nc(=O)n(CCO)c(=O)n2Cc2ccc(Cl)cc2)cc1 [I-344] | 128 |
| C=CCn1c(=O)nc(Nc2ccc(OC(C)C)c(F)c2)n(Cc2ccc(Cl)cc2)c1=O [I-346] | 16 |
| CC(C)Oc1ccc(Nc2nc(=O)n(CCO)c(=O)n2Cc2ccc([N+](=O)[O-])cc2)cc1F [I-347] | 251 |
| CCCn1c(=O)nc(Nc2ccc(OC(C)C)c(F)c2)n(Cc2ccccc2)c1=O [I-349] | 113 |
